Assay results taken from PubChem BioAssay (NCI).
Where “and” joins values, the source holds several entries; their conditions need not be identical. Identical values can stand only once.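 Assay format: 96-well plates, 48-hour exposure. GI50: concentration for 50% inhibition of growth. At the TGI there is no net growth.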

Experiments:
Assay in all cases: NCI-60 cell line screen, 48 h
K-562 leukemia = test system: K-562 leukemia
SK-MEL-2 melanoma = test system: SK-MEL-2 melanoma
UACC-257 melanoma = test system: UACC-257 melanoma
786-0 renal = test system: 786-0 renal
LOX IMVI melanoma = test system: LOX IMVI melanoma
SF-539 CNS = test system: SF-539 CNS
HCT-116 colon = test system: HCT-116 colon
SK-OV-3 ovarian = test system: SK-OV-3 ovarian
SK-MEL-5 melanoma = test system: SK-MEL-5 melanoma
ACHN renal = test system: ACHN renal

SMILES	GI50 (K-562 leukemia)	TGI (K-562 leukemia)	GI50 (SK-MEL-2 melanoma)	TGI (SK-MEL-2 melanoma)	GI50 (UACC-257 melanoma)	TGI (UACC-257 melanoma)	GI50 (786-0 renal)	TGI (786-0 renal)	GI50 (LOX IMVI melanoma)	TGI (LOX IMVI melanoma)	GI50 (SF-539 CNS)	TGI (SF-539 CNS)	GI50 (HCT-116 colon)	TGI (HCT-116 colon)	GI50 (SK-OV-3 ovarian)	TGI (SK-OV-3 ovarian)	GI50 (SK-MEL-5 melanoma)	TGI (SK-MEL-5 melanoma)	GI50 (ACHN renal)	TGI (ACHN renal)
COc1cc(NCCCCCCCNC(C)C)c2nccc(C)c2c1	3.46 µM	14.6 µM	20 µM	38.3 µM	18.2 µM	34.2 µM	14.8 µM	28.6 µM	7.03 µM	21.5 µM	13.7 µM	26.8 µM	6.95 µM	19.9 µM	13.7 µM	27.1 µM	11.9 µM	24.6 µM	14.2 µM	27.8 µM
COC(=O)C1(O)CC(=O)CCC1c1ccc(OC)cc1 (centres undefined)	–	> 100 µM	–	> 100 µM	–	> 100 µM	–	> 100 µM	–	> 100 µM	–	> 100 µM	–	> 100 µM	–	> 100 µM	–	> 100 µM	–	> 100 µM
O=C(/C=C/c1ccccc1)c1ccc(NCc2nc3ccccc3[nH]2)cc1	–	> 26.1 µM	–	25.5 µM	–	13.2 µM	–	14.4 µM	–	3.76 µM	–	5.02 µM	–	13 µM	–	18.1 µM	–	14.2 µM	–	20.4 µM
Cc1ccc(NC(=O)c2cc(S(=O)(=O)N3C(=O)NC(=O)NS3(=O)=O)c(S)cc2Cl)cc1	22.2 µM	68.7 µM	28.3 µM	85.3 µM	17.2 µM	46.8 µM	40.4 µM	> 100 µM	20.7 µM	56.1 µM	27.6 µM	68 µM	30.3 µM	> 100 µM	67.8 µM	> 100 µM	15.4 µM	32 µM	26.3 µM	83.8 µM
Cc1c2ccccc2cc2ccc3oc([N+](=O)[O-])cc3c12	–	> 100 µM	–	> 100 µM	–	> 100 µM	–	> 100 µM	–	> 100 µM	–	> 100 µM	–	> 100 µM	–	> 100 µM	–	> 100 µM	–	> 100 µM
CN(C)C(=S)/N=c1\ssc(=S)n1Cc1ccncc1	–	> 100 µM	–	52.2 µM	–	83.5 µM	–	66 µM	–	39.9 µM	–	48.4 µM	–	47.8 µM	–	72.2 µM	–	17.4 µM	–	93.1 µM
C/C(=N/NC(=O)C[N+](C)(C)C)C(CN(C)C)C(=O)Nc1ccccc1 (centres undefined)	–	> 100 µM	–	> 100 µM	–	> 100 µM	–	> 100 µM	–	> 100 µM	–	> 100 µM	–	> 100 µM	–	> 100 µM	–	> 100 µM	–	> 100 µM
CC(C)(C)OC(=O)NCCCCCCCn1c2c(c3ccccc3c1=O)C(=O)c1ccccc1-2	42.7 µM	> 100 µM	36.6 µM	> 100 µM	41.4 µM	> 100 µM	23.2 µM	55.4 µM	65.2 µM	> 100 µM	20.7 µM	38.8 µM	17.6 µM	66.6 µM	31.6 µM	> 100 µM	9.84 µM	27.6 µM	27.1 µM	90.4 µM
CC(NC(=O)N(C)C)NC(=O)N(C)C	–	> 10 µM	–	> 10 µM	–	> 10 µM	–	> 10 µM	–	> 10 µM	–	> 10 µM	–	> 10 µM	–	> 10 µM	–	> 10 µM	–	> 10 µM
CCOC(=O)/C(C#N)=C\C=C(/Cl)c1ccc(Cl)cc1	12.9 µM	> 64.3 µM	27.7 µM	> 91.6 µM	17.6 µM	32.6 µM	19.4 µM	37.4 µM	4.82 µM	18.6 µM	11.3 µM	33.9 µM	11.2 µM	24.3 µM	> 46.8 µM	> 85.4 µM	18.4 µM	39 µM	18.3 µM	32.6 µM
O=C1OCC2=C1C(c1ccccc1)c1cc3c(cc1N2CCO)OCO3 (centres undefined)	1.91 µM	> 50 µM	2.72 µM	> 50 µM	> 50 µM	> 50 µM	3.54 µM	> 50 µM	7 µM	> 50 µM	2.41 µM	> 50 µM	1.79 µM	> 50 µM	8.28 µM	> 50 µM	2.78 µM	> 50 µM	30.5 µM	> 50 µM
O=c1oc2ccccc2[n+]([O-])c1-c1ccccc1	–	> 100 µM	–	> 100 µM	–	> 100 µM	–	> 100 µM	–	> 100 µM	–	> 100 µM	–	> 100 µM	–	> 100 µM	–	> 100 µM	–	> 100 µM
CC(C)(C)c1cc(C=C(C#N)C#N)cc(C(C)(C)C)c1O	–	> 354 µM	–	1.39 µM	–	0.898 µM and 3.27 µM	0.393 µM	10.9 µM and 16.4 µM	0.375 µM	3.92 µM and 10.8 µM	0.376 µM	10.2 µM and 3.24 µM	–	1.03 µM and 3.81 µM	0.229 µM and 0.302 µM	–	0.298 µM	3.07 µM	–	20.2 µM
CCOC(=O)C(NC(=O)c1nc[nH]c1[N+](=O)[O-])C(C)C (centres undefined)	–	> 100 µM	–	> 100 µM	–	> 100 µM	–	> 100 µM	–	> 100 µM	–	> 100 µM	–	> 100 µM	–	> 100 µM	–	> 100 µM	–	> 100 µM
CC(=O)N1CCC2(c3ccccc3N(C(C)=O)C2c2ccc(O)cc2)C1C(=O)O (centres undefined)	–	> 100 µM	–	> 100 µM	–	> 100 µM	–	> 100 µM	–	> 100 µM	–	> 100 µM	–	> 100 µM	–	> 100 µM	–	> 100 µM	–	> 100 µM
COC(=O)C1(C(=O)OC)CC(=O)c2cc3c(cc2-c2c(cc(OC)c(OC)c2OC)C1)OCO3	–	> 211 µM	–	> 211 µM	–	> 211 µM	–	> 211 µM	–	> 211 µM	–	> 211 µM	–	> 211 µM	–	> 211 µM	–	> 211 µM	–	> 211 µM
CSC1=Nc2ccccc2N=C(c2ccc(Cl)cc2)C1	–	> 100 µM	–	51.4 µM	–	84.9 µM	–	> 100 µM	–	72.1 µM	–	> 100 µM	–	> 100 µM	–	> 100 µM	–	51.3 µM	–	> 100 µM
